In patent publication US5770624A, “Certain alpha-substituted arylsulfonamido acetohydroxamic acids” (priority 1996, dated 1998):
Counter-ions that a name gives are not always drawn.

Assays:
[1] = tested on: TNF-alpha (synovial fluid); experiment: Effect on the synovial fluid concentration of TNF-alpha in an inflamed rat knee; assay type: in vivo, rat (Female lewis); conditions: 50 mg/Kg p.o., dosed 1-4 h before LPS injected into both knees
Method: The effect on the synovial fluid concentration of TNF-alpha in an inflamed rat knee can be determined as follows: Female lewis rats are dosed by gavage with test compound in 0.1 ml cornstarch vehicle. One to four hours after administration of test compound 0.1 mg Lipopolysaccharide from E. coli 0127:B8 (Difco #3880-25-0) is injected into both knees. Two hours after intra-articular LPS injection, knees are lavaged with 0.1 ml saline and 2 lavages from same rat are pooled. TNF-alpha is measured using mouse TNF-alpha ELISA kit (Genzyme) which crossreacts with rat TNF-alpha Results are expressed as % inhibition of mean TNF-alpha concentration in synovial fluid from saline-injected knees.

[2] = tested on: collagen-II induced arthritis in mice; experiment: Collagen II induced arthritis model in mice; assay type: in vivo; conditions: mouse, 100 mg/Kg p.o.
Description: Antiinflammatory activity can be determined in standard inflammation and arthritic animal models well-known in the art, e.g. the adjuvant arthritis model in rats and the collagen II induced arthritis model in mice [Mediators of […]. 1, 273-279 (1992)].

[3] = biological target: T1, Human recombinant fibroblast collagenase (Homo sapiens, UniProt P03956); experiment: Collagenase activity (digestion of bovine type I collagen); assay type: biochemical; conditions: 2 hours at 35° C., read-out: IC50 for inhibition of collagenase activity
T1 sequence (P03956 100-469): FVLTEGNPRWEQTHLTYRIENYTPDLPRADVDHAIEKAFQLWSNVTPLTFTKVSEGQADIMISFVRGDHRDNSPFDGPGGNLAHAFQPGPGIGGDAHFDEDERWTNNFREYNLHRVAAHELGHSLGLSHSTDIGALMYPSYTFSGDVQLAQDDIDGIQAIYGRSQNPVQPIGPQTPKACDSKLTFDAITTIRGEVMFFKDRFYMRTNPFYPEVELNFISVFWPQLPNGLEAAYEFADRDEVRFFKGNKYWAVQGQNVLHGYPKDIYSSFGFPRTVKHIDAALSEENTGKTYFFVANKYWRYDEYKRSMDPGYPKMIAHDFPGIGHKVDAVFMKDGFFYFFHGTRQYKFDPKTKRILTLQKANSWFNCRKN
Method: Collagenase activity is determined as follows: ninety six-well, flat-bottom microtiter plates are first coated with bovine type I collagen (35 ug/well) over a two-day period at 30° C. using a humidified and then dry atmosphere; plates are rinsed, air dried for 34 hours, sealed with Saran wrap and stored in a refrigerator. Human recombinant fibroblast collagenase and a test compound (or buffer) are added to wells (total volume =0.1 ml) and plates are incubated for 2 hours at 35° C. under humidified conditions; the amount of collagenase used per well is that causing approximately 80% of maximal digestion of collagen. The incubation media are removed from the wells, which are then rinsed with buffer, followed by water. Coomasie blue stain is added to the wells for 25 minutes, removed, and wells are again rinsed with water. Sodium dodecyl sulfate (20% in 50% dimethylformamide in water) is added to solubilize the remaining stained collagen and the optical density at 570 nm wave length is measured. The decrease in optical density due to collagenase (from that of collagen without enzyme) is compared to the decrease in optical density due to the enzyme in the presence of test compound, and percent inhibition of enzyme activity is calculated. IC50's are determined from a range of concentrations of inhibitors (4-5 concentrations, each tested in triplicate), and Ki values are calculated.

[4] = biological target: T2, recombinant human stromelysin (Homo sapiens, UniProt P08254); experiment: Inhibition of stromelysin activity (hydrolysis of Substance P); assay type: biochemical; conditions: 30 min at 37° C.
T2 construct: recombinant human stromelysin (mol. wt. 45-47 kDa, 2 Units)
T2 sequence (P08254 100-477): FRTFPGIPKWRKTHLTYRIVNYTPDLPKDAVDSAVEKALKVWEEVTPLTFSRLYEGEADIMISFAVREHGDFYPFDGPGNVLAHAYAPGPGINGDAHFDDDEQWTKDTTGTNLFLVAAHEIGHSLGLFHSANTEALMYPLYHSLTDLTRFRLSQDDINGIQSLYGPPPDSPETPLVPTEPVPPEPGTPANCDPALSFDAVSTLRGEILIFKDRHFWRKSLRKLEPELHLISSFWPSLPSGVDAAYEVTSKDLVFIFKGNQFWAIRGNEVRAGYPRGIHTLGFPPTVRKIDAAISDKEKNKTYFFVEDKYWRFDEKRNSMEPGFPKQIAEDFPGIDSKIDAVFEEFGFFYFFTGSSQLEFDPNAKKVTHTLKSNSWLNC
Method: One test to determine the inhibition of stromelysin activity is based on its hydrolysis of Substance P using a modified procedure of Harrison et al (Harrison, […]., and Stein R., A semicontinuous, high performance chromatography based assay for stromelysin, Anal. Biochem. 18, 110-113 (1989)). In this assay, Substance P is hydrolyzed by recombinant human stromelysin to generate a fragment, Substance P 7-11, which can be quantitated by HPLC. In a typical assay, a 10 mM stock solution of a compound to be tested is diluted in the assay buffer to 50 μM, mixed 1:1 with 8 μg recombinant human stromelysin (mol. wt. 45-47 kDa, 2 Units; where 1 Unit produces […] of Substance P 7-11 in 30 minutes) and incubated along with 0.5 mM Substance P in a final volume of 0.125 ml for 30 minutes at 37° C. The reaction is stopped by adding 10 mM EDTA and Substance P 7-11 is quantified on RP-8 HPLC. The IC50 for inhibition of stromelysin activity and Ki are calculated from control reaction without the inhibitor.

[5] = tested on: TNF-alpha production by LPS-stimulated THP-1 cells; experiment: Effect on the production of soluble TNF-alpha by LPS-stimulated THP-1 cells; assay type: cell-based; conditions: Homo sapiens, 30 min pre-incubation, 100 ng/ml LPS for 4 hours, ELISA
Method: The effect on the production of soluble TNF-alpha by LPS-stimulated THP-1 cells can be determined as follows: Tissue culture medium used is RPM 1640 (Gibco cat #11875-036) containing 10% fetal calf serum, 1% penicillin and streptomycin. TBP-1 cells (ATCC #202-TIB) at 1×10+5 cells/well are added to 100 μl medium or test compound. Cells are pre-incubated with compound for 30 minutes in a 37° C. humidified chamber with 5% CO2 and then stimulated with 100 ng/ml of LPS (Sigma cat #L-4391) for 4 hours. Plates are then centrigued and […] of conditioned medium for TNF analysis is harvested. The amount of TNF-alpha in control and test cultures is determined by ELISA using recombinant TNF-alpha for the standard curve, using TNF ELISA plates (Genzyme) for TNF analysis. Absorbance readings and data calculations are performed on a Molecular Devices plate reader. Results are expressed in IC50 's of test compound.

TNF-alpha (plasma) = experiment: Effect on the plasma concentration of TNF-alpha in the mouse following intravenous injection of endotoxin; assay type: in vivo, mouse (Female Balb-CbyJ); conditions: about 50 mg/Kg p.o., dosed 1-4 h before 0.1 mg/kg LPS i.v.
Method: The effect on the plasma concentration of TNF-alpha in the mouse following intravenous injection of endotoxin can be determined as follows:
Female Balb-CbyJ mice are dosed by gavage with test compound in 0.1 ml cornstarch vehicle/10 grams body weight. One to four hours after administration of test compound, 0.1 mg/kg Lipopolysaccharide from E. coli 0127:B8 (Difco #3880-25-0) in saline is injected i.v. One hour after i.v. injection of LPS, blood is collected for determination of plasma TNF-alpha using mouse TNF-alpha ELISA kit (Genzyme). Eight mice are used per treatment group. Results are expressed as % inhibition of mean TNF-alpha concentration in control mice.

| SMILES | reduction of TNF-α concentration in the synovial fluid [1] | inhibition of collagen-II induced arthritis in mice [2] | IC50 [3] [nM] | IC50 [4] [nM] | IC50 [5] [nM] | % inhibition of mean plasma TNF-alpha concentration in control mice (TNF-alpha (plasma)) [%] |
| --- | --- | --- | --- | --- | --- | --- |
| CCCO[C@H]1CC[C@H]([C@H](C(=O)NO)N(Cc2ccncc2)S(=O)(=O)c2ccc(OCC)cc2)CC1.Cl [2(u), N-hydroxy-2(R)-[(4ethoxybenzenesulfonyl)(4-picolyl)amino]-2-(trans-4-propoxycyclohexyl)acetamide hydrochloride] | ~98% | effective in inhibiting collagen-II induced arthritis | ~45 | ~11 | ~2500 | – |
| CCCO[C@H]1CC[C@H]([C@H](C(=O)NO)N(Cc2ccncc2)S(=O)(=O)c2ccc(OC)cc2)CC1 [Example 1, hydrochloride] | about 70% | effective in inhibiting collagen-II induced arthritis | ~80 | ~16 | ~2500 | 50 |
